Experiment [1] addresses T1, PAD1 (Homo sapiens, UniProt Q9ULC6).
T1 construct: made in house
T1 sequence (Q9ULC6 1-663): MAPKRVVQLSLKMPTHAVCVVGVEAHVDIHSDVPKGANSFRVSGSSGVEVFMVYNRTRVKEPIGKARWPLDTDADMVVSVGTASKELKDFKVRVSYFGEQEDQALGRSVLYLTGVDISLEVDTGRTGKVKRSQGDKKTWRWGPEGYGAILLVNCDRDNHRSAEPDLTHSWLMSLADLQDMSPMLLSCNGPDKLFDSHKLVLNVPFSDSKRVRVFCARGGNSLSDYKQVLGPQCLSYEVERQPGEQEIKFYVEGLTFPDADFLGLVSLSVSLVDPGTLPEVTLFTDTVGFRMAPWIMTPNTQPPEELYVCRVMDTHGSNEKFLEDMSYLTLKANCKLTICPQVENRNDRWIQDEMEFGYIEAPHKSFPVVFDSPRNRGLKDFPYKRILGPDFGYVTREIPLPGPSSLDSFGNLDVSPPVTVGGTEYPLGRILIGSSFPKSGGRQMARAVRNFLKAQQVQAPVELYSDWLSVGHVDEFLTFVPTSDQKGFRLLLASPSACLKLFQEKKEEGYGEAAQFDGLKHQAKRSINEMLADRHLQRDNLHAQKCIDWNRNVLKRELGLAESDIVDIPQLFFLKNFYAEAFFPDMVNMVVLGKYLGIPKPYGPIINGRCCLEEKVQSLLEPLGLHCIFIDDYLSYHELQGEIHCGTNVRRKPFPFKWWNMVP
Nature of the experiment: Inhibition of RFA labelling of PAD1 (ABPP assay). In kind it is binding. The conditions noted are these: PAD1 2 μM, RFA 2 μM, 37° C., 2 h. From the text: The halogen-dependent change in potency of the PAD1 inhibitors was further confirmed using an activity-based protein profiling (ABPP) assay that uses the PAD-targeted probe, rhodamine-conjugated F-amidine (RFA, FIG. 2C).
RFA enables the covalent modification and fluorescent labelling of PADs with the help of its fluoroacetamidine and rhodamine moieties, respectively. However, in the presence of a PAD inhibitor that can compete for binding to the active site, RFA labelling is inhibited. […] Similar results were obtained with the chloroacetamidine-containing compounds 2, 12, 14 and 8 (FIG. 9).
RFA labelling. RFA labelling of PAD1 in the presence of inhibitors followed a protocol similar to that established for PAD2. (Mondal, et al. ACS Chem. Biol. 2018, 13, 1057-1065.) Briefly, PAD1 (2 μM final) was added to prewarmed (10 min at 37° C.) reaction mixture (100 mM TRIS pH 7.4, 50 mM NaCl, 10 mM CaCl2, and 2 mM DTT in a final volume of 30 μL) containing RFA (2 μM final) and DMSO or various concentrations of the inhibitor. […] In-gel fluorescence of the protein bands was recorded using a typhoon scanner (excitation/emission maxima of ˜546/579, respectively) and was quantified using ImageJ software. IC50 values of the inhibitors were obtained by plotting the relative decrease in the fluorescence intensity of protein bands against the concentration of inhibitor. […]

For experiment [2], the target named is T1, PAD1. Nature of the experiment: Target engagement assay: labelling of PAD1 in HEK293TPAD1 cells with 21 in the presence of inhibitor. Particulars: 5 μM of 21, 3 h, read-out: EC50 of inhibition of labelling of PAD1 by 21. In kind it is cell-based. The procedure: Target Engagement Assay—Labelling of PAD1 in HEK293TPAD1 cells with 21 in the presence of 1. This study followed a similar procedure to that described for the dose-dependent labelling of PAD1 in HEK293TPAD1 cells with 21. Briefly, HEK293TPAD1 cells were treated with 1 mM CaCl2, 5 μM ionomycin, 5 μM of 21, and increasing concentrations (0-50 μM) of 1 in serum-free DMEM for 3 h. Cells were scraped, harvested by centrifugation at 3,000 rpm for 5 min and resuspended in 1×PBS. Lysis was carried out by sonicating the cells with a probe sonicator and lysates were clicked with TAMRA-N3 in the presence of TCEP, TBTA and CuSO4 as described above. Protein bands were separated by SDS-PAGE and were visualized by recording in-gel fluorescence. […] All the experiments were performed at least in duplicate.

pEC50, pIC50: −log10 of the molar value.

By pIC50 is commonly meant the IC50 on a negative log10 scale, so that one unit is a factor of ten. Low values mean a high IC50, high ones a low IC50. Broadly, the pEC50 is the negative decadic logarithm of the EC50, by convention in mol/L.

Take `N=C(CF)NCCC[C@H](NC(=O)c1cc(I)cc(I)c1O)c1nc2ccccc2[nH]1` [Compound 1]: the pIC50 in experiment [1] was 4.74. Moreover, the pEC50 in experiment [2] is 4.90.

The record behind these values is US12448358B2, “Inhibitors of protein arginine deiminase 1 and methods of preparation and use thereof” (University of Massachusetts, priority 2019, dated 2025).
